“Also recorded” adds a separate entry of the source. Where a name gives a salt, the structure may show the parent alone. Read-outs that look alike come from different tables or passages of the source.
Tests used:
Aerobacter aerogenes = test: in vivo protection of infected mice; details: subcutaneous route × two doses
Protocol: (§1) Methods: The method employed in this characterization is as follows: Female white Swiss mice, average weight 20-23 grams, were infected intraperitoneally with 3-20 times the number of organisms calculated to be lethal for 50% of the infected control animals (3-20 LD50 doses). At the time of infection and again 6 hours later, therapy was given by the designated route. Controls of the virulence of the culture and the toxicity of the antibiotic for uninfected mice were included in the tests. Seven days after infection the test was considered complete and the amount of the antibiotic (I) that would be required to protect 50% of the infected and treated animals was calculated by the method of Knudsen and Curtis: J. Amer. Stat. Assoc. Vol. 42: page 282 (1947).
(§2) The method employed in these studies is the same as described above with regard to the in vivo characterization of 810A. The results of these tests are described below in Table XIb:
(§3) Administration was by subcutaneous injection. At the completion of the test period, usually 7 days after administration, the amount of product required to protect 50% of the mice (ED50) from this otherwise fatal injection was calculated: […]

[1] = tested on: Diplococcus pneumoniae 2400; test: in vivo protection of infected mice; details: subcutaneous route × two doses
Protocol: as §1, §2, §3

Escherichia coli = test: in vivo protection of infected mice; details: subcutaneous route × two doses
Protocol: as §1, §2, §3

Klebsiella pneumoniae AD = test: in vivo protection of infected mice; details: subcutaneous route × two doses
Protocol: as §1, §2, §3

Klebsiella pneumoniae B = test: in vivo protection of infected mice; details: subcutaneous route × two doses
Protocol: as §1, §2, §3

Paracolobactrum arizonae = test: in vivo protection of infected mice; details: subcutaneous route × two doses
Protocol: as §1, §2, §3

Pasteurella multocida = test: in vivo protection of infected mice; details: subcutaneous route × two doses
Protocol: as §1, §2, §3

Proteus mirabilis = test: in vivo protection of infected mice; details: subcutaneous route × two doses
Protocol: as §1, §2, §3

Proteus morganii 3202 = test: in vivo protection of infected mice; details: for protection of infected mice: subcutaneous, 4000 mg. × 2 doses (so in the source)
Protocol: as §1, §2, §3

Proteus vulgaris = test: in vivo protection of infected mice; details: subcutaneous route × two doses
Protocol: as §1, §2, §3

[2] = tested on: Salmonella schottmuelleri; test: in vivo protection of infected mice; details: subcutaneous route × two doses
Protocol: as §1, §2, §3

Salmonella typhosa = test: in vivo protection of infected mice; details: subcutaneous route × two doses
Protocol: as §1, §2, §3

Proteus morganii 356 [3] = test: mouse protection test, clinical isolate; type: in vivo, mice; details: subcutaneous route × 2 doses (average of two trials)
Protocol: as §1
Administration was by subcutaneous injection. At the completion of the test period, usually 7 days after administration, the amount of product required to protect 50% of the mice (ED50) from this otherwise fatal injection was calculated:
In addition to the aforementioned in vivo trials of the product, a clinical isolate of Proteus morganii 356 which is resistant to cephalosporins and capable of degrading cephalosporin C, was employed in a mouse protection test performed in the same manner as reported above.

[4] = tested on: gram-negative and gram-positive organisms; test: in vivo activity against infections (in words); parameters: species or system mice; details: for in vivo gram-negative potency compared with cephalothin: in general
Protocol: as §1
The method employed in these studies is the same as described above with regard to the in vivo characterization of 810A.

[5] = blood appearance and urinary excretion; type: in vivo; details: within four hours after administration; 240 min
Escherichia coli 236 = test: bacterial inactivation
Protocol: (§4) These cultures are: Escherichia coli 236, Proteus morganii 251, Proteus morganii 356 and Proteus mirabilis 241. […] In conducting the assay, individual mixtures of the organisms and one of the antibiotics were sampled after 4 hours incubation and assayed for residual antibiotic activity. The procedure is the same assay method as described above against Alcaligenes faecalis MB-9 and A. viscosus MB-12.

Proteus mirabilis 241 = test: bacterial inactivation
Protocol: as §4

Proteus morganii 251 = test: bacterial inactivation
Protocol: as §4

Proteus morganii 356 [6] = test: bacterial inactivation
Protocol: as §4

cephalosporinases [7] = test: resistance to cephalosporinases / enzymatic degradation; type: biochemical
[8] = isoelectric point and pH stability; type: physicochemical
[9] = tested on: gram-negative and gram-positive bacteria; test: antibacterial activity (in words); type: cell-based
Salmonella = test: activity against Salmonella (in words); type: cell-based
[10] = tested on: Alcaligenes faecalis (MB-9)
[11] = tested on: Alcaligenes viscosus (MB-12); details: 4 h
[12] = tested on: Alcaligenes faecalis (MB-9); test: bacterial inactivation by washed cells
[13] = tested on: Vibrio percolans (MB-1272); test: disc-plate assay using Vibrio percolans
[14] = tested on: Aerobacter cloacae (MB-2646); test: inactivation by cell-free filtrate; type: biochemical; details: for Antibiotic Activity Remaining: starting concentration 250 μg./ml.
Protocol: The ability of Antibiotic 810A and cephalosporin C to withstand the degradative effect of the culture Aerobacter cloacae (MB-2646) was also determined. This culture is gram-negative and resistant to cephalosporin C. […] The source of the inactivating substance is a 1:160 dilution of the filtrate of an 18 hour 37° C. shake culture of Aerobacter cloacae MB-2646 in nutrient broth containing 0.2% yeast extract. Table XIV, infra, indicates the percent inactivation of Antibiotic 810A, cephalothin, cephaloridine and cephalosporin C on Vibrio percolans (MB-1272) via this method:
Using the same assay procedure as described above, Table XV, infra, indicates the relative resistance of Antibiotic 810A to enzymatic inactivation by Aerobacter cloacae. The starting concentration in 250 μg./ml. Results are expressed in μg./ml.

[15] = tested on: Alcaligenes faecalis (MB-9); details: organism known to inactivate; cited from earlier work
[16] = tested on: Alcaligenes viscosus (MB-12); details: organism known to inactivate; cited from earlier work
penicillinase = details: background statement; cited from earlier work
cephalosporinases [17] = details: background statement; cited from earlier work
[18] = tested on: gram-negative and gram-positive bacteria; details: background statement, cited from earlier work
[19] = tested on: Alcaligenes viscosus (MB-12); test: bacterial inactivation by washed cells; details: 4 hour incubation; assayed on B. subtilis (MB-964)
[20] = 2 hour incubation, assayed on V. percolans (MB-1272)
[21] = 4 hours incubation, assayed on B. subtilis (MB-964)
[22] = 2 hour incubation, assay organism B. subtilis 964
[23] = 2 hour incubation, assay organism V. percolans 1272

`CO[C@@]1(NC(=O)CCC[C@@H](N)C(=O)O)C(=O)N2C(C(=O)O)=C(COC(N)=O)CS[C@@H]21` [Antibiotic 842A] showed an ED50 (Aerobacter aerogenes) of 49 µg, an ED50 [1] of 566 µg and an ED50 (Escherichia coli) of 200 µg. For the same molecule, the ED50 (Klebsiella pneumoniae AD) was 125 µg, the ED50 (Klebsiella pneumoniae B) was 125 µg and the ED50 (Paracolobactrum arizonae) was 125 µg. For the same molecule, the ED50 (Pasteurella multocida) was 57 µg, the ED50 (Proteus mirabilis) was 276 µg and the ED50 (Proteus morganii 3202; subcutaneous route × two doses) was 276 µg. The ED50 (Proteus vulgaris) was 51 µg, the ED50 [2] was 103 µg and the ED50 (Salmonella typhosa) was 34 µg. For the same molecule, the ED50 (Proteus morganii 356 [3]) was 273 µg, the “oral protection against infections” value ([4]; given orally) was “protects against infections due to Paracolobactrum arizonae 3270, Proteus vulgaris 1810, and Salmonella schottmuelleri 3010” and the “in vivo gram-negative potency compared with cephalothin” value [4] was “greater than cephalothin”. For the same molecule, the “in vivo gram-negative potency compared with cephalothin” value ([4]; listed as 842A) was “generally increased gram-negative effect and an increased potency when compared to cephalothin”, the “in vivo activity / protection against infections” value ([4]; mouse, in vivo) was “effectiveness in vivo on Proteus morganii and an effectiveness against the following gram-negative bacteria: Escherichia coli, Proteus vulgaris, Proteus mirabilis, Proteus morganii, Salmonella schottmuelleri, Klebsiella pneumoniae AD, Klebsiella pneumoniae B, and Paracolobactrum arizonae; also recorded: protects against infection with three species of Proteus, two of Salmonella, one strain of Escherichia coli, two of Klebsiella and also against Paracolobactrum arizonae, Aerobacter aerogenes, Pasteurella multocida and Diplococcus pneumoniae 2400” and the “protection from gram-negative infection compared with known antibiotics” value ([4]; subcutaneously to mice) was “generally more active than cephalothin; also recorded: approximately equal to cephaloridine, ampicillin and chloromycetin”. The “eliminated in the urine” value [5] was “approximately 80%”, the percent inactivation (Escherichia coli 236; bacterial cells, 4 h) was 38% and the percent inactivation (Proteus mirabilis 241; bacterial cells, 4 h) was 5%. The percent inactivation (Proteus morganii 251; bacterial cells, 4 h) was 80%, the percent inactivation (Proteus morganii 356 [6]; bacterial cells, 4 h) was 69% and the resistance to cephalosporinases (cephalosporinases [7]) was “a greater resistance to cephalosporinases”. The “resistance to enzymatic degradation compared with cephalosporin C” value (cephalosporinases [7]) was “more resistant to enzymatic degradation than cephalosporin C”, the stability ([8]; above pH 7) was “unstable” and the stability ([8]; above pH 9.0) was “unstable”. For the same molecule, the stability ([8]; pH 1.5) was “relatively stable”, the stability ([8]; pH 1.5, listed as 842A) was “stable” and the “antibacterial effect (in words)” value [9] was “enhanced activity against gram-negative microorganisms”. The bactericidal action [9] was “bactericidal”, the development of resistance [9] was “resistance to it develops slowly” and the “growth inhibition of gram-negative bacteria” value ([9]; in vitro) was “inhibits the growth of the following gram-negative bacteria: Escherichia coli, Proteus vulgaris, Alcaligenes faecalis, Brucella bronchiseptica, Salmonella gallinarum, Vibrio percolans and Xanthomonas vesicatoria”. For the same molecule, the “growth inhibition of gram-positive bacteria” value ([9]; in vitro) was “inhibits the growth of the following gram-positive bacteria: Staphylococcus aureus, Sarcina lutea and Bacillus subtilis”, the “activity against Salmonella species” value (Salmonella) was “exhibits activity against Salmonella schottmuelleri 3010, S. gallinarum and S. typhosa” and the “Percent Inactivation After Incubation With Washed Bacterial Cells” value ([10]; 4 h) was 0%. For the same molecule, the “Percent Inactivation After Incubation With Washed Bacterial Cells” value [11] was 54.4%, the “resistance to inactivation compared with cephalosporin C” value ([12]; A. faecalis, A. viscosus, E. coli 236, P. morganii 251 and 236 (so in the source), P. mirabilis 241) was “more resistant than cephalosporin C” and the “stability to bacterial inactivation” value ([12]; compared with cephalosporin C, cephaloridine and cephalothin, certain microorganisms) was “more stable than the latter against certain microorganisms”. It also gave an inhibition zone ([13]; Example 9 broth after 4 days, 0.5 inch discs) of 33 mm.
Work on `CO[C@@]1(NC(=O)CCC[C@@H](N)C(=O)O)C(=O)N2C(C(=O)O)=C(COC(N)=O)CS[C@@H]21` [Sodium Salt] yielded an IC (25 mm zone) ([13]; Comamonas terrigena, read-out: concentration giving a 25 mm. zone, Example 11 concentrate at a dilution of 1:100) of 400 µg/mL.
In the case of `CC(=O)OCC1=C(C(=O)O)N2C(=O)[C@@H](NC(=O)CCC[C@@H](N)C(=O)O)[C@H]2SC1` [Cephalosporin C], the “Percent Inactivation After Incubation With Cell-Free Extract” value [14, 20] is reported as 96%, the percent inactivation (Escherichia coli 236; [21]) is reported as greater than 99% and the percent inactivation (Proteus mirabilis 241; [21]) is reported as 72%. For the same molecule, the percent inactivation (Proteus morganii 251; [21]) was greater than 99%, the percent inactivation (Proteus morganii 356 [6]; [21]) was greater than 99% and the “inactivation of cephalosporin C” value [15] was “completely inactivate”. For the same molecule, the “inactivation of cephalosporin C” value [16] was “completely inactivate”, the behaviour toward penicillinase (penicillinase) was “inherent resistance to penicillinase” and the behaviour toward cephalosporinases (cephalosporinases [17]) was “effective in destroying its activity”. The antibacterial activity [18] was “only moderately active”, the antibacterial activity ([18]; listed as cephalosporin C) was “relatively low antibacterial activity” and the “Percent Inactivation After Incubation With Washed Bacterial Cells” value ([12]; 3 hour incubation, assayed on B. subtilis (MB-964), 4 mg./ml.) was greater than 99%. The “Percent Inactivation After Incubation With Washed Bacterial Cells” value ([12]; 3 hour incubation, assayed on V. percolans (MB-1272)) was greater than 99%, the “Percent Inactivation After Incubation With Washed Bacterial Cells” value ([12]; 4 hour incubation, assayed on B. subtilis (MB-964)) was greater than 99% and the “Percent Inactivation After Incubation With Washed Bacterial Cells” value [19] was greater than 99%.
In the case of `O=C(Cc1cccs1)N[C@@H]1C(=O)N2C(C(=O)[O-])=C(C[n+]3ccccc3)CS[C@H]12` [Cephaloridine], the “protection of infected mice” value (Proteus morganii 3202) is reported as “failed to protect”, the ED50 (Proteus morganii 356 [3]) is reported as 9,270 μg and the “Percent Inactivation After Incubation With Cell-Free Extract” value ([14]; aerobacter cloacae culture filtrate, 2 h) is reported as 96%. For the same molecule, the “Antibiotic Activity Remaining” value [14, 22] was less than 10 µg/mL and the “Antibiotic Activity Remaining” value [14, 23] was less than 10 µg/mL.
For `CC(=O)OCC1=C(C(=O)O)N2C(=O)[C@@H](NC(=O)Cc3cccs3)[C@H]2SC1` [Cephalothin], the “protection of infected mice” value (Proteus morganii 3202) was “failed to protect”, the ED50 (Proteus morganii 356 [3]) was > 20,000 μg and the “Percent Inactivation After Incubation With Cell-Free Extract” value [14, 20] was 66%. For the same molecule, the “Antibiotic Activity Remaining” value [14, 22] was 140 µg/mL, the “Antibiotic Activity Remaining” value [14, 23] was 85 µg/mL and the “Percent Inactivation After Incubation With Washed Bacterial Cells” value ([10]; 3 h) was 50%.
In the case of `CC1(C)S[C@@H]2[C@H](NC(=O)Cc3ccccc3)C(=O)N2[C@H]1C(=O)O` [Penicillin G], the behaviour toward penicillinase (penicillinase) is given as “degraded to a form which is ineffective against most pathogens”.
